Laboratory results as given in article PMC10145285, “Diverse Biological Activity of Benzofuroxan/Sterically Hindered Phenols Hybrids” (Pharmaceuticals, 2023).
Converted amounts (≈) assume the structure as drawn. Like-named read-outs stand apart in the source and are kept apart here.

Assays:
PC3 = experiment: cells; format: cell-based; conditions: Homo sapiens, read-out: IC50, PC3
MCF-7 = experiment: cells; format: cell-based, human; conditions: Homo sapiens, read-out: IC50, MCF-7
T98G = experiment: cells; format: cell-based; conditions: Homo sapiens, 48 h, read-out: IC50, T98G
A375 = experiment: cells; format: cell-based; conditions: Homo sapiens, read-out: IC50, A375
WI38 = experiment: cells; format: cell-based; conditions: Homo sapiens, read-out: IC50, WI38
[1] = system: Staphylococcus aureus ATCC 6538P FDA 209P (Sa); experiment: Antimicrobial serial microdilution, Sa; format: cell-based; conditions: for MIC: read-out: Minimum Inhibitory Concentration (MIC), Sa
[2] = system: Bacillus cereus ATCC 10702 (Bc); experiment: Antimicrobial serial microdilution, Bc; format: cell-based; conditions: for MIC: Bacillus cereus
[3] = system: Enterococcus faecalis ATCC 29212 (Ef); experiment: Antimicrobial serial microdilution, Ef; format: cell-based; conditions: for MIC: Enterococcus faecalis
MRSA-1 = experiment: Antimicrobial serial microdilution, MRSA-1; format: cell-based, Staphylococcus aureus
MRSA-2 = experiment: Antimicrobial serial microdilution, MRSA-2; format: cell-based, Staphylococcus aureus
HuTu 80 = experiment: cells; conditions: Homo sapiens, HuTu80, 48 h, read-out: IC50, HuTu 80
PANC-1 = experiment: cells; conditions: Homo sapiens, PANC-1, 48 h, read-out: IC50, PANC-1
M-HeLa = experiment: cells; conditions: Homo sapiens, 48 h, read-out: IC50, M-HeLa
A549 = experiment: cells; conditions: Homo sapiens, A549, 48 h, read-out: IC50, A549
Chang Liver = experiment: cells; conditions: Homo sapiens, 48 h, read-out: IC50, Chang Liver
[4] = A-375, cancer cell line, 48 h incubation, MTT
[5] = WI-38, normal cell line, 48 h incubation, MTT
[6] = serial microdilution, Mueller-Hinton broth

Row | SMILES | IC50 (PC3; PC-3, 48 h) [µM] | IC50 (MCF-7; MCF7, 48 h) [µM] | IC50 (T98G) [µM] | IC50 (A375; A-375, 48 h) [µM] | IC50 (WI38; WI-38, 48 h) [µM] | IC50 (HuTu 80) [µM] | IC50 (PANC-1) [µM] | IC50 (M-HeLa) [µM] | IC50 (A549) [µM] | IC50 (Chang Liver) [µM] | other results
1 | CC(C)(C)c1cc(C(c2ccc(Nc3c([N+](=O)[O-])cc([N+](=O)[O-])c4no[n+]([O-])c34)nc2N)P(=O)(Oc2ccccc2)Oc2ccccc2)cc(C(C)(C)C)c1O (stereo not drawn) [4d, 7-((6-amino-5-((3,5-di-tert-butyl-4-hydroxyphenyl)(diphenoxyphosphoryl)methyl)pyridin-2-yl)amino)-4,6-dinitrobenzo[c][1,2,5]oxadiazole 1-oxide] | 11.3 ± 0.9 | 9 ± 0.7 | 7.9 ± 0.7 | 17 ± 1.4 | 11.3 ± 1.1 | 13.1 ± 1.1 | 11.9 ± 0.9 | 6.3 ± 0.5 | 9 ± 0.7 | 21 ± 2.4 | Minimum Inhibitory Concentration (MIC), Sa [1]: -; Minimum Inhibitory Concentration (MIC), Bc [2]: -; Minimum Inhibitory Concentration (MIC), Ef [3]: -; Minimum Inhibitory Concentration (MIC), MRSA-1 (MRSA-1): -; Minimum Inhibitory Concentration (MIC), MRSA-2 (MRSA-2): -
2 | COP(=O)(OC)C(c1cc(C(C)(C)C)c(O)c(C(C)(C)C)c1)c1ccc(Nc2c([N+](=O)[O-])cc([N+](=O)[O-])c3no[n+]([O-])c23)cc1N (stereo not drawn) [4e, 7-((3-amino-4-((3,5-di-tert-butyl-4-hydroxyphenyl)(dimethoxyphosphoryl)methyl)phenyl)amino)-4,6-dinitrobenzo[c][1,2,5]oxadiazole 1-oxide] | 12.3 ± 1.1 | 21.5 ± 1.8 | 40.2 ± 3.1 | 53.1 ± 4.1 | 25.7 ± 2.2 | 17.1 ± 1.3 | 17.4 ± 1.3 | 12 ± 1 | 48.3 ± 3.7 | 14.3 ± 1.3 | 
3 | COP(=O)(OC)C(c1cc(C(C)(C)C)c(O)c(C(C)(C)C)c1)c1ccc(Nc2c([N+](=O)[O-])cc([N+](=O)[O-])c3no[n+]([O-])c23)nc1Nc1c([N+](=O)[O-])cc([N+](=O)[O-])c2no[n+]([O-])c12 (stereo not drawn) [5a, 7,7’-((3-((3,5-di-tert-butyl-4-hydroxyphenyl)(dimethoxyphosphoryl)methyl)pyridine-2,6-diyl)bis(azanediyl))bis(4,6-dinitrobenzo[c][1,2,5]oxadiazole 1-oxide)] | 7.7 ± 0.6 | 12.1 ± 1.1 | 26.8 ± 2.2 | 21.6 ± 1.8 | 11.4 ± 0.9 | 11 ± 0.9 | 13.5 ± 1.1 | 7.7 ± 0.6 | 48.4 ± 3.5 | 15.1 ± 1.7 | MIC ([1]; Staphylococcus aureus): 125 ± 11 µg/mL (≈ 141 µM); MBC ([1]; Staphylococcus aureus, read-out: Minimum bactericidal and fungicidal concentrations (MBC), (MFC), Sa): 250 ± 19 µg/mL (≈ 283 µM); Minimum bactericidal and fungicidal concentrations (MBC), (MFC), Bc [2]: -; MIC ([2]; ATCC10702, read-out: Minimum Inhibitory Concentration (MIC), Bc): 62.5 ± 5.3 µg/mL (≈ 70.7 µM); Minimum bactericidal and fungicidal concentrations (MBC), (MFC), Ef [3]: -; MIC ([3]; ATCC29212, read-out: Minimum Inhibitory Concentration (MIC), Ef): 125 ± 10 µg/mL (≈ 141 µM); MIC (MRSA-1; Staphylococcus aureus, MRSA, read-out: Minimum Inhibitory Concentration (MIC), MRSA-1): 250 ± 20 µg/mL (≈ 283 µM); MBC (MRSA-1; Staphylococcus aureus, MRSA, read-out: Minimum bactericidal and fungicidal concentrations (MBC), (MFC), MRSA-1): 250 ± 21 µg/mL (≈ 283 µM); Minimum bactericidal and fungicidal concentrations (MBC), (MFC), MRSA-2 (MRSA-2): -; MIC (MRSA-2; Staphylococcus aureus, MRSA, read-out: Minimum Inhibitory Concentration (MIC), MRSA-2): 250 ± 20 µg/mL (≈ 283 µM)
4 | O=C(N[C@H](CO)[C@H](O)c1ccc([N+](=O)[O-])cc1)C(Cl)Cl [Chloramphenicol, reference compound] |  |  |  |  |  |  |  |  |  |  | MIC ([1]; Staphylococcus aureus, serial microdilution, Mueller-Hinton broth): 31.3 ± 2.2 µg/mL (≈ 96.9 µM); Minimum bactericidal and fungicidal concentrations (MBC), (MFC), Sa ([1]; serial microdilution): -; MIC ([2]; ATCC10702, serial microdilution, Mueller-Hinton broth, read-out: Minimum Inhibitory Concentration (MIC), Bc): 62.5 ± 5.4 µg/mL (≈ 193 µM); Minimum bactericidal and fungicidal concentrations (MBC), (MFC), Bc ([2]; serial microdilution): -; MIC ([3]; ATCC29212, serial microdilution, Mueller-Hinton broth, read-out: Minimum Inhibitory Concentration (MIC), Ef): 62.5 ± 5.2 µg/mL (≈ 193 µM); Minimum bactericidal and fungicidal concentrations (MBC), (MFC), Ef ([3]; serial microdilution): -; Minimum bactericidal and fungicidal concentrations (MBC), (MFC), MRSA-1 (MRSA-1; serial microdilution): -; Minimum bactericidal and fungicidal concentrations (MBC), (MFC), MRSA-2 (MRSA-2; serial microdilution): -
5 | COc1cccc2c1C(=O)c1c(O)c3c(c(O)c1C2=O)C[C@@](O)(C(=O)CO)C[C@@H]3O[C@H]1C[C@H](N)[C@H](O)[C@H](C)O1 [DOX, doxorubicin, reference compound] |  |  | 2 ± 0.1 |  |  | 0.2 ± 0.01 | 2.2 ± 0.1 | 2.1 ± 0.2 | 0.7 ± 0.05 | 0.5 ± 0.04 | IC50 (MCF-7; MCF7, cancer cell line, 48 h incubation, MTT): 0.4 ± 0.03 µM; IC50 (A375; [4]): 0.3 ± 0.02 µM; IC50 (WI38; [5]): 0.4 ± 0.02 µM
6 | CC(=O)N1CCN(c2ccc(OCC3COC(Cn4ccnc4)(c4ccc(Cl)cc4Cl)O3)cc2)CC1 (stereo not drawn) [Ketoconazole, reference compound] |  |  |  |  |  |  |  |  |  |  | Minimum bactericidal and fungicidal concentrations (MBC), (MFC), Sa ([1]; serial microdilution): -; Minimum Inhibitory Concentration (MIC), Sa [1, 6]: -; Minimum bactericidal and fungicidal concentrations (MBC), (MFC), Bc ([2]; serial microdilution): -; Minimum Inhibitory Concentration (MIC), Bc [2, 6]: -; Minimum bactericidal and fungicidal concentrations (MBC), (MFC), Ef ([3]; serial microdilution): -; Minimum Inhibitory Concentration (MIC), Ef [3, 6]: -; Minimum bactericidal and fungicidal concentrations (MBC), (MFC), MRSA-1 (MRSA-1; serial microdilution): -; Minimum Inhibitory Concentration (MIC), MRSA-1 (MRSA-1; serial microdilution, strain resistant to β-lactams and fluoroquinolones): -; Minimum bactericidal and fungicidal concentrations (MBC), (MFC), MRSA-2 (MRSA-2; serial microdilution): -; Minimum Inhibitory Concentration (MIC), MRSA-2 (MRSA-2; serial microdilution, strain resistant only to β-lactams): -
7 | CNC(=O)c1cc(Oc2ccc(NC(=O)Nc3ccc(Cl)c(C(F)(F)F)c3)cc2)ccn1 [SF, sorafenib, reference compound] |  |  | 8.6 ± 0.7 |  |  |  | 12 ± 1.1 |  | 25.2 ± 2.2 |  | IC50 (PC3; PC-3, cancer cell line, 48 h incubation, MTT): 11.3 ± 0.9 µM; IC50 (A375; [4]): 6.8 ± 0.5 µM; IC50 (WI38; [5]): 6.6 ± 0.5 µM
